Results reported in US20150225454A1, “TETRABRANCHED PEPTIDES AND ANALOGUES AS A NEW CLASS OF ANTIMICROBIALS AND THEIR PREPARATION THEREOF” (priority 2012, published 2015).
≈ marks a conversion by molar mass, not a printed value. Where two headings read alike, the source gives them in different places. Where a SMILES comes first, the peptide text is derived from it. Bridges are numbered along the chain shown (N, C = ends). Roman numbers before positions name the chains, in order.

How the values were obtained:
[1] = SDS-PAGE pull down assay with cell wall polysaccharides; format: binding; details: chitin or β-D-glucan, 5.5-22 μM, 2 h, 37° C.
Protocol: In another study to probe the mechanism of action, the affinity of B4010 for insoluble polysaccharides such as chitin and β-D-glucan, the major component of fungal cell walls was examined. B4010 (5.5-22 μM) was incubated with chitin (from shrimp shells) or β-D-glucan for 2 h at 37° C. The mixture was centrifuged at 10,000 g and the supernatant was analyzed by SDS-PAGE (4-20%). A control experiment without chitin/β-D-glucan was also performed to quantify peptide binding to the carbohydrate polymers.

[2] = tested on: C. albicans (ATCC 10231 and DF2672R); format: cell-based; details: for time to 4 log reduction (99.99%) in viable cells: ATCC strain
Protocol: The time-kill kinetics was measured for two strains of C. albicans (ATCC 10231 and DF2672R). The cultures were grown overnight in SD broth and the cell concentration was adjusted to 10^5-10^6 CFU/ml with phosphate buffer. The peptide or antifungals were added to the individual cultures. […] The test solution was incubated at 37° C. with constant shaking. 100 μL of the suspension is withdrawn at predetermined time points, serially diluted (10^2 or 10^3 fold) and poured into the SDA plate. The plate was incubated for 48 h at 37° C. for colony counting. The data were expressed in terms of % cell viability relative to the positive control.

C. albicans [3] = assay: Measurement of extracellular cations (ICP-OES); format: cell-based
Protocol: Overnight cultured late logarithmic phase C. albicans was harvested by centrifugation, washed 5 times with 10 mM HEPES (pH 7.0), resuspended in the same buffer and adjusted to an OD600=0.4. To 5 ml of this suspension, B4010 (final concentration 5.5 μM) was added and incubated at 37° C. for 2 h. The mixture was centrifuged at 3,000 g and the presence of K^+, Ca^2+ and Mg^2+ in the supernatant was estimated by Perkin Elmer Dual-view Optima 5300 DV inductively coupled plasma-optical emission spectrometry (ICP-OCS Massachusetts, USA) available at CMMAC facilities (Department of Chemistry, National University of Singapore).

[4] = Calcein release from mammalian model membrane SUVs; details: PC:Cholesterol, compared with fungal model membrane
Protocol: Small unilamellar vesicles (SUVs) were prepared using PC/PE/PI or PS lipids (5:2.5:2.5) containing 15 wt % ergosterol or PC/Cholesterol (10:1) (Makovitzki et al., 2006). For the preparation of PC/PE/PI or PS/Erg SUV, the lipids were dissolved in chloroform/methanol (2:1, v/v) in a glass tube. Ergosterol was dissolved in same solvent and added to lipid mixture to make final ergosterol content of 15 wt %. The Lipid-ergosterol mixture was dried using nitrogen gas to form lipid layer. The film was hydrated in a buffer containing 20 mM PBS (pH 7), vortexed and sonicated. Each cycle of sonication (5 sec, 40° C.) is followed by freezing in liquid nitrogen and thawing on a water bath kept at 37° C. The procedure was repeated 5-6 times until an optically clear dispersion appeared. The SUV was divided into two parts. To the first part 50 mM calcein was added and incubated for 1 h. […] Changes in the fluorescence signal after addition of peptide or Triton X-100 was measured on a PTI spectrofluorometer, using an excitation wavelength of 480 nm and emission wavelength of 512 nm. The Percentage calcein released at each time point was calculated using the equation: […]
Where A0 is the observed fluorescence intensity upon addition of peptides, Amin is the average intensity at the baseline (before peptide addition), Amax is the average intensity at the saturation phase after adding 1% Triton X-100. […]

S. cerevisiae = format: cell-based
Protocol: A few identical colonies from WT and mutant strains were immediately inoculated and grown overnight in SD broth containing 0.1 mg/ml ampicilin at 30° C. Cells were harvested by centrifugation, washed with sterile water and frozen. Cells were plated again on SD agar plates and incubated at 37° C. for 48 h. Two or three identical colonies of the mutant strains were collected and inoculated in SD broth. Peptides were dissolved in sterile water and mixed with WT and mutant strains and incubated at 37° C. for 48 or 72 h in a test tube. The lowest concentration of the peptide that inhibited the growth of the yeast strain was determined by visual inspection.

C. albicans [5] = assay: microbe, parasite or virus in culture; format: cell-based
Protocol: The yeast strains were cultivated and suspended in Sabouraud's Dextrose (SD) broth diluted at one sixth at a starting OD600=˜0.08 in a flat-bottomed microtitre plate. A serial dilution of peptide in the same broth was mixed with the inoculum to give a final peptide concentration of 0.4-22 μM. The antifungal activity was assessed by monitoring the OD600 in cycles of 30 minutes and an orbital shaking at 100 rpm using an Infinite M200 microplate reader (Tecan Group Ltd., Switzerland) for 24/48 h at 37° C. Cultures without peptides were used as positive controls and broth alone or with 22 μM peptide served as negative controls. The minimum concentration required for complete inhibition was assessed by both visible observations as well as by measuring the OD600 and taken as the MIC. Each experiment was repeated in triplicates.

CC(C)[C@H](NC(=O)[C@H](CCCCN)NC(=O)[C@H](CCCNC(=N)N)NC(=O)CNC(=O)[C@@H](N)CCCNC(=N)N)C(=O)N[C@H](C(=O)N[C@@H](CCCNC(=N)N)C(=O)N[C@@H](CCCNC(=N)N)C(=O)NCCCC[C@H](NC(=O)[C@H](CCCNC(=N)N)NC(=O)[C@H](CCCNC(=N)N)NC(=O)[C@@H](NC(=O)[C@@H](NC(=O)[C@H](CCCCN)NC(=O)[C@H](CCCNC(=N)N)NC(=O)CNC(=O)[C@@H](N)CCCNC(=N)N)C(C)C)C(C)C)C(=O)NCCCC[C@H](NC(=O)[C@H](CCCCNC(=O)[C@H](CCCNC(=N)N)NC(=O)[C@H](CCCNC(=N)N)NC(=O)[C@@H](NC(=O)[C@@H](NC(=O)[C@H](CCCCN)NC(=O)[C@H](CCCNC(=N)N)NC(=O)CNC(=O)[C@@H](N)CCCNC(=N)N)C(C)C)C(C)C)NC(=O)[C@H](CCCNC(=N)N)NC(=O)[C@H](CCCNC(=N)N)NC(=O)[C@@H](NC(=O)[C@@H](NC(=O)[C@H](CCCCN)NC(=O)[C@H](CCCNC(=N)N)NC(=O)CNC(=O)[C@@H](N)CCCNC(=N)N)C(C)C)C(C)C)C(=O)N[C@@H](CCCCN)C(=O)O)C(C)C [Peptide B4010] (I: H-RGRKVVRRKKK-OH / II: H-RGRKVVRRK / III: H-RGRKVVRR / IV: H-RGRKVVRR; amide I:9-IV:C, I:10-II:C, II:9-III:C; N-terminus and C-terminus assumed)
affinity for cell wall polysaccharides (coprecipitation) [1]: no affinity | time to complete killing ([2]; 4×MIC): 30 min | killing ([2]; ATCC 10231, 1 h, 1): ~91% | killing ([2]; ATCC 10231, 48 h, 2): ~97% | time to 3 log reductions of viable cells ([2]; ATCC and clinical isolates, 2× or 4×MIC): less than 1 h | time to 4 log reduction (99.99%) in viable cells ([2]; 4×MIC): ≤ 20 minutes | time to 4 log reduction (99.99%) in viable cells ([2]; 8×MIC): ≤ 10 minutes | time to complete killing ([2]; C. albicans DF2672R, 2×MIC): 60 min | increase in K+- and Ca2+-ions (C. albicans [3]): 2 fold | calcium concentration in supernatant (C. albicans [3]; 5.5 μM, 2 h): 5.8 ± 1.3 µM | levels of Na+ and Mg2+ ions (C. albicans [3]; 5.5 μM, 2 h): no significant changes | potassium concentration in supernatant (C. albicans [3]; 5.5 μM, 2 h): 104 ± 4.2 µM | calcein leakage [4]: less calcein leakage | MIC (S. cerevisiae; RH448, Wildtype, Ergosterol (77%)): 5.5 µM (≈ 25.1 µg/mL) | MIC (S. cerevisiae; RH5684, erg6Δ): 2.8 µM (≈ 12.8 µg/mL) | MIC (S. cerevisiae; RH5812, erg2Δ): 1.4 µM (≈ 6.39 µg/mL) | MIC (S. cerevisiae; RH5930, erg3Δerg6Δ): 1.4 µM (≈ 6.39 µg/mL) | MIC (S. cerevisiae; RH6826, 7-deoxycholesterol): 2.8 µM (≈ 12.8 µg/mL) | MIC (S. cerevisiae; RH6827, Campasterol): 2.8 µM (≈ 12.8 µg/mL) | MIC (S. cerevisiae; RH6829, Cholesterol): 2.8 µM (≈ 12.8 µg/mL) | decrease in MIC of ergΔ mutants compared to the wild type (S. cerevisiae; all the ergΔ mutants): 2-4 fold | decrease in MIC compared to the wild type (S. cerevisiae; erg2Δ, erg3Δ, erg3Δerg6Δ and erg4Δerg5Δ): 4 folds | increased sensitivity compared to the wild type (S. cerevisiae; erg2Δerg6Δ and erg6Δ): 2 fold | MIC for two C. albicans clinical isolates (C. albicans [5]): 0.34 µM | MIC values, C. albicans (C. albicans [5]): 0.37 to 1.4 µM | decrease in MIC compared to the co-valent dimer (C. albicans [5]): 4-10 fold | activity superior to natamycin (C. albicans [5]; ATCC reference and clinical isolates): 2-4 times
